This note sets out measurements from the supplement of paper PMC10307832.

Holding throughout (assay): relative viability (nuclei count vs DMSO), 5 days (fraction); higher = more cells survive
Compound in the test “BI-D1870 + Palbociclib”: CC(C)CCN1c2nc(Nc3cc(F)c(O)c(F)c3)ncc2N(C)C(=O)C1C [BI-D1870] + CC(=O)c1c(C)c2cnc(Nc3ccc(N4CCNCC4)cn3)nc2n(C2CCCC2)c1=O [Palbociclib] (partner 0.5 µM)
In short, it runs like this: (§1)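 Lung cancer cell lines in 1536-well plates got either a single drug or a fixed anchor-drug dose together with five library-drug doses (not always all listed) in √10 steps, by pin tool, on the day after seeding. Nuclei were counted after 5 days, and relative viability is the treated-to-vehicle ratio of nuclei counts. Values are medians of duplicate plates.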

Compound in the test “BI-D1870 + Alpelisib”: CC(C)CCN1c2nc(Nc3cc(F)c(O)c(F)c3)ncc2N(C)C(=O)C1C [BI-D1870] + Cc1nc(NC(=O)N2CCC[C@H]2C(N)=O)sc1-c1ccnc(C(C)(C)C(F)(F)F)c1 [Alpelisib] (partner 2 µM)
In short, it runs like this: as §1

Compound in the test “Zebularine + Pictilisib”: O=c1ncccn1[C@@H]1O[C@H](CO)[C@@H](O)[C@H]1O [Zebularine] + CS(=O)(=O)N1CCN(Cc2cc3nc(-c4cccc5[nH]ncc45)nc(N4CCOCC4)c3s2)CC1 [Pictilisib] (partner 1 µM)
In short, it runs like this: as §1

Compound in the test “Zebularine + Pemetrexed”: O=c1ncccn1[C@@H]1O[C@H](CO)[C@@H](O)[C@H]1O [Zebularine] + Nc1nc2[nH]cc(CCc3ccc(C(=O)N[C@@H](CCC(=O)O)C(=O)O)cc3)c2c(=O)[nH]1 [Pemetrexed] (partner 0.2 µM)
In short, it runs like this: as §1

As to EKVX, the relative viability was found to be 0.472 with BI-D1870 + Palbociclib (first compound 0.04 µM); 0.366 in the test with BI-D1870 + Palbociclib (first compound 0.1265 µM); 0.352 in the test with BI-D1870 + Palbociclib (first compound 0.4 µM); 0.385 with BI-D1870 + Palbociclib (first compound 1.265 µM); 0.341 with BI-D1870 + Palbociclib (first compound 4 µM); 0.957 in the test with BI-D1870 + Alpelisib (first compound 0.04 µM). In addition, the relative viability in the test with BI-D1870 + Alpelisib (first compound 0.1265 µM) worked out at 0.759; with BI-D1870 + Alpelisib (first compound 0.4 µM), 0.85; with BI-D1870 + Alpelisib (first compound 1.265 µM), 0.898; in the test with BI-D1870 + Alpelisib (first compound 4 µM) it was 0.664; with Zebularine + Pictilisib (first compound 1 µM), 0.419; with Zebularine + Pictilisib (first compound 3.162 µM), 0.456. In addition, the relative viability is 0.487 with Zebularine + Pictilisib (first compound 31.62 µM); 0.401 with Zebularine + Pictilisib (first compound 100 µM); 0.396 with Zebularine + Pemetrexed (first compound 1 µM); 0.431 in the test with Zebularine + Pemetrexed (first compound 3.162 µM); 0.433 with Zebularine + Pemetrexed (first compound 31.62 µM); 0.397 with Zebularine + Pemetrexed (first compound 100 µM).
LXF-289: the relative viability in the test with BI-D1870 + Palbociclib (first compound 0.04 µM) is 0.577; with BI-D1870 + Palbociclib (first compound 0.1265 µM), 0.583; with BI-D1870 + Palbociclib (first compound 0.4 µM) it was 0.598; with BI-D1870 + Palbociclib (first compound 1.265 µM) it was 0.641; with BI-D1870 + Palbociclib (first compound 4 µM), 0.558; with BI-D1870 + Alpelisib (first compound 0.04 µM), 1.12. Besides, the relative viability in the test with BI-D1870 + Alpelisib (first compound 0.1265 µM) turned out to be 0.983; with BI-D1870 + Alpelisib (first compound 0.4 µM) it was 1; with BI-D1870 + Alpelisib (first compound 1.265 µM), 1.02; with BI-D1870 + Alpelisib (first compound 4 µM), 0.899; with Zebularine + Pictilisib (first compound 1 µM), 0.908; in the test with Zebularine + Pictilisib (first compound 3.162 µM), 0.769. Also, the relative viability with Zebularine + Pictilisib (first compound 10 µM) is 0.792; with Zebularine + Pictilisib (first compound 31.62 µM), 0.687; with Zebularine + Pictilisib (first compound 100 µM) it was 0.294; in the test with Zebularine + Pemetrexed (first compound 1 µM), 0.919; with Zebularine + Pemetrexed (first compound 3.162 µM), 0.879; in the test with Zebularine + Pemetrexed (first compound 10 µM) it was 0.895. The relative viability is 0.702 in the test with Zebularine + Pemetrexed (first compound 31.62 µM) and 0.403 with Zebularine + Pemetrexed (first compound 100 µM).
As for NCI-H650, the relative viability with BI-D1870 + Palbociclib (first compound 0.04 µM) is 0.384; with BI-D1870 + Palbociclib (first compound 0.1265 µM) it was 0.304; in the test with BI-D1870 + Palbociclib (first compound 0.4 µM), 0.338; in the test with BI-D1870 + Palbociclib (first compound 1.265 µM), 0.353; with BI-D1870 + Palbociclib (first compound 4 µM) it was 0.233; in the test with BI-D1870 + Alpelisib (first compound 0.04 µM), 1.16. Besides, the relative viability with BI-D1870 + Alpelisib (first compound 0.1265 µM) came to 0.944; in the test with BI-D1870 + Alpelisib (first compound 0.4 µM), 1.14; with BI-D1870 + Alpelisib (first compound 1.265 µM) it was 0.97; with BI-D1870 + Alpelisib (first compound 4 µM), 0.722; in the test with Zebularine + Pictilisib (first compound 1 µM), 0.886; with Zebularine + Pictilisib (first compound 3.162 µM), 0.868. In addition, the relative viability with Zebularine + Pictilisib (first compound 10 µM) was 0.445; with Zebularine + Pictilisib (first compound 31.62 µM), 0.374; with Zebularine + Pictilisib (first compound 100 µM), 0.27; with Zebularine + Pemetrexed (first compound 1 µM), 0.918; with Zebularine + Pemetrexed (first compound 3.162 µM), 1.03; with Zebularine + Pemetrexed (first compound 10 µM) it was 0.757. In addition, the relative viability stood at 0.454 with Zebularine + Pemetrexed (first compound 31.62 µM) and 0.286 with Zebularine + Pemetrexed (first compound 100 µM).
For the cell line NCI-H2085, the relative viability turned out to be 0.453 with BI-D1870 + Palbociclib (first compound 0.04 µM); 0.475 with BI-D1870 + Palbociclib (first compound 0.1265 µM); 0.474 with BI-D1870 + Palbociclib (first compound 0.4 µM); 0.456 with BI-D1870 + Palbociclib (first compound 1.265 µM); 0.355 with BI-D1870 + Palbociclib (first compound 4 µM); 0.986 in the test with BI-D1870 + Alpelisib (first compound 0.04 µM). Further, the relative viability is 0.886 with BI-D1870 + Alpelisib (first compound 0.1265 µM); 0.92 in the test with BI-D1870 + Alpelisib (first compound 0.4 µM); 0.938 with BI-D1870 + Alpelisib (first compound 1.265 µM); 0.74 with BI-D1870 + Alpelisib (first compound 4 µM); 0.435 with Zebularine + Pictilisib (first compound 1 µM); 0.411 in the test with Zebularine + Pictilisib (first compound 3.162 µM). Besides, the relative viability with Zebularine + Pictilisib (first compound 10 µM) was 0.444; with Zebularine + Pictilisib (first compound 31.62 µM), 0.461; with Zebularine + Pictilisib (first compound 100 µM), 0.343; with Zebularine + Pemetrexed (first compound 1 µM), 0.913; in the test with Zebularine + Pemetrexed (first compound 3.162 µM), 0.881; in the test with Zebularine + Pemetrexed (first compound 10 µM), 0.753. Also, the values for the relative viability with Zebularine + Pemetrexed (first compound 31.62 µM) and in the test with Zebularine + Pemetrexed (first compound 100 µM) were 0.877 and 0.495, respectively.
